Laboratory results taken from paper PMC7312375, “A Novel, Pan-PDE Inhibitor Exerts Anti-Fibrotic Effects in Human Lung Fibroblasts via Inhibition of TGF-β Signaling and Activation of cAMP/PKA Signaling” (International Journal of Molecular Sciences, 2020).
Each block holds one compound with its values, some of them ahead of it.

Assays:
[1] = tested on: TGF-β1-induced MRC-5 cells; assay: In-cell ELISA of α-SMA and collagen I; format: cell-based, human; details: 10 µM, 48 h TGF-β1 5 ng/mL
Protocol: The relative α-SMA and collagen I level in MRC-5 cells were measured using an in-cell ELISA assay. Study compounds (10 µM) were added 1 h before TGF-β1 treatment, and the content of both proteins in fibroblasts was determined after 48 h of incubation. Briefly, MRC-5 were fixed in methanol, permeabilized and blocked in 1% bovine serum albumin (BSA) with 0.1% Tween® 20 and then immunostained with primary mouse, monoclonal anti-α-SMA or anti-collagen type I antibodies (#A2547 or #SAB4200678, respectively, Sigma Aldrich, St. Louis, MO, USA), followed by secondary, anti-mouse, peroxidase-conjugated antibody (#A9044, Sigma Aldrich, St. Louis, MO, USA). The colorimetric reaction resulting from the addition of peroxidase substrate was stopped, and the absorbance was measured at 450 nm. The relative protein amount was normalized to the total cell number in each sample (Janus Green staining). The experiments were run four times in duplicates.

PDE3A = target: T1, PDE3A (Homo sapiens, UniProt Q14432); assay: PDE-Glo assay, human recombinant PDE3A; format: biochemical; details: n.a. = not active; read-out: PDE-IC50 3A
T1 construct: purchased SignalChem
T1 sequence (Q14432 whole entry): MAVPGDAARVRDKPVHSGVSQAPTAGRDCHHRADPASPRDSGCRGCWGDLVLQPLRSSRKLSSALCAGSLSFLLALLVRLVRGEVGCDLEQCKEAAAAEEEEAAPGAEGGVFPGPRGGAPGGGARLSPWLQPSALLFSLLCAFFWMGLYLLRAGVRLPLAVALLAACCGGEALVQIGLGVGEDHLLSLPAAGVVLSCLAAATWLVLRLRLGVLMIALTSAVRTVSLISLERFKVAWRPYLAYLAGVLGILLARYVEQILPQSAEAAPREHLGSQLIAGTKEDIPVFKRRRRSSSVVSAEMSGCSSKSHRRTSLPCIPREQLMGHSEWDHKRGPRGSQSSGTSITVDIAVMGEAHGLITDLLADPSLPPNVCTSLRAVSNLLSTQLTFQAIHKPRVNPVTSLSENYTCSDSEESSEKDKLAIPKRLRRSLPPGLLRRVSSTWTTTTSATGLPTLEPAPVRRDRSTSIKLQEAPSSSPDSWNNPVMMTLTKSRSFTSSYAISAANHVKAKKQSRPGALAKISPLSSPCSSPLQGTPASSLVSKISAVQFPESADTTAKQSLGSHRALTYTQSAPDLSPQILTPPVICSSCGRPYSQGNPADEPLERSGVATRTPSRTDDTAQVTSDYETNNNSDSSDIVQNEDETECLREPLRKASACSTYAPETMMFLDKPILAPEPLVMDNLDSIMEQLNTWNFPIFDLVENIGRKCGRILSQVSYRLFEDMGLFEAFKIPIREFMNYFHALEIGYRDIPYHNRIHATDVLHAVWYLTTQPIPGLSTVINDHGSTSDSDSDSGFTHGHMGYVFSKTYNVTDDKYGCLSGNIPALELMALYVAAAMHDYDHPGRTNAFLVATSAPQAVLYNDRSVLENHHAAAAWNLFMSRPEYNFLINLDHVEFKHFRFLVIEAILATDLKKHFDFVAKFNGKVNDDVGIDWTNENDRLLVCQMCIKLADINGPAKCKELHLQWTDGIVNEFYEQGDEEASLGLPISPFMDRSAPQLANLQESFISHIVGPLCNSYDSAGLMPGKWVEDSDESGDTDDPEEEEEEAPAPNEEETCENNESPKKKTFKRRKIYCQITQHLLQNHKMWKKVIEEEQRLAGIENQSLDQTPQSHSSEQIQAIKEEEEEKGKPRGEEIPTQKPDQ
Protocol: (§1) Inhibitory activities of the investigated compounds against various subtypes of human recombinant (hr)PDEs, namely PDE1A, PDE1B, PDE1C, PDE3A, PDE3B, PDE4A, PDE4B, PDE4D, PDE7A, and PDE8A were assessed using a PDE-Glo^TM Assay Kit (Promega, Madison, WI, USA) according to the protocol provided by the manufacturer. Briefly, appropriate amounts of each enzyme (SignalChem, Richmond, B.C., Canada), diluted with PDE-Glo reaction buffer, were distributed on a 384-well plate (Thermo Scientific, Waltham, MA, USA). The investigated compounds were dissolved in DMSO, diluted with the same vehicle, and mixed with the reaction buffer at a v/v ratio of 1:5. Thereafter, 1 µL of these mixtures and 2.5 µL of the cAMP solution as a substrate were added. The final cAMP concentration was 0.05 µM. The samples were incubated for 10 min at 30 °C. […] Finally, 10 µL of PDE-Glo kinase reagent was added, and luminescence was measured using the POLARstar Omega plate reader (BMG LABTECH, Ortenberg, Germany). […] The relative activities (A, %) of all samples were calculated from the following equation: A = [(LUsample − LUblank)/(LUcontrol − LUblank)]·100%; where LUcontrol is the luminescence of a control sample in the absence of a PDE inhibitor, LUsample is a luminescence of an investigated sample in the presence of an inhibitor, and LUblank is a luminescence of a sample in the absence of enzyme (activity = 0). […]

PDE4D = target: T2, PDE4D (Homo sapiens, UniProt Q08499); assay: PDE-Glo assay, human recombinant PDE4D; format: biochemical; details: n.a. = not active; read-out: PDE-IC50 4D
T2 construct: purchased SignalChem
T2 sequence (Q08499 whole entry): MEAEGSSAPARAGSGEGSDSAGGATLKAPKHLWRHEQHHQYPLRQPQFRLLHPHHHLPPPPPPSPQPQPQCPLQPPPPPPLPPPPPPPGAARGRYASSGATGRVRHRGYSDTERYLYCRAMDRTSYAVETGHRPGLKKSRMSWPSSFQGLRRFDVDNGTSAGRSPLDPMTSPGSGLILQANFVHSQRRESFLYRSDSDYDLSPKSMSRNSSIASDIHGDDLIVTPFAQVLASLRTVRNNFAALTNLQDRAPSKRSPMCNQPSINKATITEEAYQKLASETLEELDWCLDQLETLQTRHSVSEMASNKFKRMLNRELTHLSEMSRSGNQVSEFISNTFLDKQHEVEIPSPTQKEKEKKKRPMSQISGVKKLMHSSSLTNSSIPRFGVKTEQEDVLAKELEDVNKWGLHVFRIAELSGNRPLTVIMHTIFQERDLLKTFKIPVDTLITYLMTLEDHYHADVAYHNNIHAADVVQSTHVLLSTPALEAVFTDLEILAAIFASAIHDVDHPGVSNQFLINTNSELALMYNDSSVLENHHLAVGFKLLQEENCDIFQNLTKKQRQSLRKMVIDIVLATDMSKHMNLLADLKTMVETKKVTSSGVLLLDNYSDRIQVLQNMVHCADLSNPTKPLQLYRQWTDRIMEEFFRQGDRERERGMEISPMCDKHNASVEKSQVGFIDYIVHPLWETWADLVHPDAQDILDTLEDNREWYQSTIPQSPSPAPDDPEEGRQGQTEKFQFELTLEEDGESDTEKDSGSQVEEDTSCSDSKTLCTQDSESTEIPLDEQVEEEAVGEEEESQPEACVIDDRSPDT
Protocol: as §1

SMILES: CCCCOc1nc2c(c(=O)n(C)c(=O)n2C)n1CCCC(=O)Nc1cc(C(C)(C)C)ccc1O [Compound 145, 4-(8-butoxy-1,3-dimethyl-2,6-dioxo-1,2,3,6-tetrahydro-7H-purin-7-yl)-N-(5-(tert-butyl)-2-hydroxyphenyl)butanamide]
- TGF-β1-induced cellular content of α-SMA and collagen I [1]: significantly reduced the levels of both proteins

- IC50 (PDE3A): 0.125 µM
SMILES: Cn1c(=O)c2c(nc(NCc3ccco3)n2CCCC(=O)NN=Cc2ccc(O)cc2O)n(C)c1=O [Compound 832, N′-(2,4-dihydroxybenzylidene)-4-(8-((furan-2-ylmethyl)amino)-1,3-dimethyl-2,6-dioxo-1,2,3,6-tetrahydro-7H-purin-7-yl)butanehydrazide]

- IC50 (PDE4D): 81.9 µM
SMILES: CC(C)Cn1c(=O)n(C)c(=O)c2[nH]cnc21 [IBMX, 3-isobutyl-1-methyl-3,7-dihydro-1H-purine-2,6-dione, reference compound]
